Test results from US10646508B1, “Method of safely administering nitrate dietary supplements and compositions” (ThermoLife International, LLC, priority 2007, dated 2020).

How the values were obtained:
[1] = Intrinsic dissolution profiles (modified Wood's apparatus, USP type II); type: physicochemical
Protocol: Objective: The objective of this study was to determine the dissolution characteristics of three different forms of commercially available Creatine including Creatine nitrate (CN), Creatine monohydrate (CM) and buffered Creatine (BC) under different temperature and pH. Methods: Intrinsic dissolution studies were carried out at 37° C. and room temperature in pH 2.5 and 7.4 buffer using modified Wood's apparatus. CN, CM and BC samples (˜0.5 g) were compressed in the dies with constant surface area of 1.21 cm2 using a Carver press at 2000 psi with a dwell time of 10 sec. These dies were placed in the USP dissolution apparatus (type II) containing 140 ml of dissolution media, with paddle speed of 50 rpm. Dissolution medium were collected at definite time intervals over a period of 3 hours for CN and 7 hours for both CM and BC and analyzed for Creatine using a validated HPLC method. Results: A plot of the amount of Creatine dissolved (mg)/surface area (cm2) versus time gives the slope (k′) which is directly proportional to the dissolution rate constant. The k′ (mg/cm2 hr) values for CN, CM and BC in pH 2.5 buffer at room temperature were 293.0±3.48, 59.1±2.06 and 71.1±0.59. At 37° C. these k′ (mg/cm2 hr) values were 327.3±2.66, 97.9±0.88 and 117.9±1.12, respectively. In pH 7.4 buffer, the k′ (mg/cm2 hr) values for CN, CM and BC were 278.9±14.6, 52.1±0.22 and 50.6±0.95 at room temperature and 319.5±14.3, 86.0±5.05 and 96.9±9.28 at 37° C., respectively. Conclusions: The dissolution rates of all three Creatine forms were higher at 37° C. as compared to at room temperature. […] However, the dissolution rate of CN was not affected by the pH of the dissolution media. […] Results of this study further predict a better bioavailability of CN as compared to CM and BC.

[2] = Chemical stability of Creatine forms in solution; type: physicochemical; details: for pH of samples, initial: start of storage; for degradation rate constant (k): ~10 mg/ml
Protocol: Methods: A known concentration (˜10 mg/ml) of CN, CM and BC were prepared in both pH 2.5 and pH 6.8 buffer and stored in stability chambers in screw-capped bottles at 37° C. and 40° C., respectively. Samples were collected at predetermined time points and analyzed for Creatine and degradation products if any, using a validated HPLC method. Changes in the pH, clarity and color of the samples were also determined. The order of degradation and rate constant were determined by graphical method. Results: The degradation rate constants (k) for CN, CM and BC at 37° C. in pH 2.5 buffer were 0.075±0.001, 0.119±0.011 and 0.108±0.002 (day-1) while that at 40° C. in pH 6.8 buffer were 0.115±0.001, 0.015±0.001 and 0.013±0.002 (day-1), respectively. The pH of CN samples at 40° C. in pH 6.8 buffer changed from 2.83±0.01 to 4.31±0.01 within a period of 12 days. The pH changes noticed at 37° C. in pH 2.5 buffer samples over the same period of time for CM, and BC were 3.08±0.01 to 4.12±0.01 and 3.11±0.01 and 4.16±0.01, respectively. […] No change in the color and the clarity was noticed over 12 days. Conclusions: All the Creatine samples followed first order degradation kinetics under both these experimental conditions. […] The major degradation product detected was Creatinine. For CN the increase in pH was higher at 40° C. in pH 6.8 buffer as compared to 37° C. in pH 2.5 buffer. However, opposite effect was noticed for both CM and BC.

[3] = pH 2.5 buffer, room temperature
[4] = pH 7.4 buffer, room temperature

Compound	k' (slope, proportional to intrinsic dissolution rate constant) ([1]; pH 2.5 buffer, 37° C.) [mg/cm2 hr]	k' (slope, proportional to intrinsic dissolution rate constant) [1, 3] [mg/cm2 hr]	k' (slope, proportional to intrinsic dissolution rate constant) ([1]; pH 7.4 buffer, 37° C.) [mg/cm2 hr]	k' (slope, proportional to intrinsic dissolution rate constant) [1, 4] [mg/cm2 hr]	pH of samples, after storage ([2]; 37° C. in pH 2.5 buffer, over 12 days)	pH of samples, initial ([2]; 37° C. in pH 2.5 buffer)	degradation rate constant (k) ([2]; 37° C. in pH 2.5 buffer) [day⁻¹]	pH of samples, initial ([2]; 40° C. in pH 6.8 buffer)	pH of samples, after storage ([2]; 40° C. in pH 6.8 buffer, within a period of 12 days)	degradation rate constant (k) ([2]; 40° C. in pH 6.8 buffer) [day⁻¹]
CN(CC(=O)O)C(=N)N.O [CM, Creatine monohydrate, reference compound]	97.9±0.88	59.1±2.06	86.0±5.05	52.1±0.22	4.12±0.01	3.08±0.01	–	–	–	–
CN(CC(=O)O)C(=N)N.O=[N+]([O-])O [CN, Creatine nitrate]	327.3±2.66	293.0±3.48	319.5±14.3	278.9±14.6	–	–	0.075 ± 0.001	2.83±0.01	4.31±0.01	0.115 ± 0.001
